From patent US11692164B2, “Antibiotic-free compositions for the prevention or control of coccidiosis” (Huvepharma Inc., priority 2017, dated 2023)
Where two headings read alike, the source gives them in different places.

Tests used:
E. maxima oocysts [1] = assay: Effect of disinfectants at minimal inhibitory concentration on E. maxima oocyst viability; format: cell-based, Eimeria maxima
Method: (§1) In this example, additional disinfectant compounds were tested for their ability to inhibit microbial growth in Eimeria oocyst samples as compared to formalin. E. maxima oocysts were spiked with B. subtilis and P. chrysogenum, and the minimal inhibitory concentrations of several disinfectants were determined. The disinfectants were then added to E. maxima oocysts and the oocysts were stored at 2-7° C. for 6 months. The oocysts were assayed for viability and the decrease in viability due to the disinfectant was calculated by comparison to the same lot of oocysts stored in 0.5×PBS only. Exemplary results are summarized below in Table 5.

[2] = test system: B. subtilis and P. chrysogenum; assay: Minimal inhibitory concentration of disinfectants in E. maxima oocysts spiked with B. subtilis and P. chrysogenum; format: cell-based, Bacillus subtilis and Penicillium chrysogenum
Method: as §1

[3] = test system: Vaccine Serial (E. acervulina, E. maxima and E. tenella oocysts); details: storage at 2-7° C.
Eimeria maxima oocysts = details: 0.675% formalin; stored 2 weeks at 2-7° C.; compared to same lot of oocysts stored with 0% formalin
[4] = test system: Eimeria acervulina oocysts; details: 0.1% formalin; stored 4 months at 2-7° C.; compared to same lot of oocysts stored with 0% formalin
E. maxima oocysts [5] = details: storage at 2-7° C.
Method: (§2) The effect of formalin on oocyst viability was investigated using oocyst lots of each Eimeria species (E. acervulina, E. maxima and E. tenella) and on vaccine. Viability was determined initially prior to the addition of formalin, and then after 1 year of storage at 2-7° C.

E. tenella oocysts = details: storage at 2-7° C.
Method: as §2

E. acervulina oocysts = details: storage at 2-7° C.
Method: as §2

Compound	Decrease in Viability (E. maxima oocysts [1]; disinfectant at minimal inhibitory concentration, 6 months of storage at 2-7 C., compared to same lot stored with 0% disinfectant (0.5×PBS only)) [%]	Minimal Inhibitory Concentration [2] [%]	% Viable Oocysts after Storage for 12 Months, Vaccine Serial 12 mo ([3]; formalin concentration 0.0028) [%]	% Viable Oocysts after Storage for 12 Months, Vaccine Serial 12 mo ([3]; formalin concentration 0.0071) [%]	Decrease in Viability (Eimeria maxima oocysts) [%]	Decrease in Viability [4] [%]	% Viable Oocysts after Storage for 12 Months, E. maxima 12 mo (E. maxima oocysts [5]; formalin concentration 0.010) [%]	% Viable Oocysts after Storage for 12 Months, E. maxima 12 mo (E. maxima oocysts [5]; formalin concentration 0.025) [%]	% Viable Oocysts after Storage for 12 Months, E. tenella 12 mo (E. tenella oocysts; formalin concentration 0.010) [%]	% Viable Oocysts after Storage for 12 Months, E. tenella 12 mo (E. tenella oocysts; formalin concentration 0.025) [%]	% Viable Oocysts after Storage for 12 Months, E. acervulina 12 mo (E. acervulina oocysts; formalin concentration 0.010) [%]	% Viable Oocysts after Storage for 12 Months, E. acervulina 12 mo (E. acervulina oocysts; formalin concentration 0.025) [%]	Decrease in Viability (E. maxima oocysts [1]) [%]
CC(C)=CCCC(C)=CC=O [Citral]	24	0.0125											
C=O [Formalin, formaldehyde]			83	84	49	37	47	41	95	86	59	27	
Cc1ccc(C(C)C)c(O)c1 [Thymol]		0.0063											15
